In patent publication US7998940B2, “Aptamers to von Willebrand factor and their use as thrombotic disease therapeutics” (Archemix Corp., priority 2004, dated 2011):
Where two headings read alike, the source gives them in different places. Oligonucleotides are written 5' to 3', each unit as a sugar letter and its base; * is a phosphorothioate linkage, no mark a phosphodiester; rarer units and linkages stand in square brackets, end groups in braces. Plain capitals give the bases only. [PEG] = polyethylene glycol spacer within the chain; [invdT] = inverted (3'-3') thymidine; d = 2'-deoxy (DNA); m = 2'-O-methyl

Test system: full length human vWF (SEQ ID NO 7)
Test: dot blot KD determination and extent of binding, full length human vWF;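 note: dot blot binding of aptamers to full length human vWF across a protein titration, incubated 30 minutes at room temperature in 1x DPBS with BSA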
Conditions: for % binding @ 100 nM vWF: extent of aptamer binding at 100 nM full length human vWF; for Kd: full length human vWF, read-out: KD
[1] = Phase 3 modification, dot blot, 8 point protein titration
[2] = Phase 1 modification, dot blot, 8 point protein titration

Row | Substance | % binding @ 100 nM vWF (Phase 1 modification) [%] | Kd [2] [nM] | further results
1 | ARC1372: ARC1361 with single phosphorothioate phosphate backbone modification (mGmCmGmUdGdCdAmGmUmGmCmCmUmUmCmGmGmCdCmGdTmGdCdG*dGdTmGmCdCmUdCdCmGmUdCmAmCmGmC[invdT]; aptamer) |  |  | % binding @ 100 nM vWF (Phase 3 modification): 35.2%; Kd [1]: 23.5 nM
2 | ARC1227: ARC1172 with one residue replaced by 2'-O methyl residue (dGdGdCdGdTdGdCdAdGdTdGdCdCdTdTdCdGdGdCdCdGdTdGdCdGdGdTdGdCdCdTdCdCmGdTdCdAdCdGdCdC[invdT]; aptamer) | 40 | 3 | 
3 | ARC1370: ARC1361 with single phosphorothioate phosphate backbone modification (mGmCmGmUdGdCdAmGmUmGmCmCmUmUmCmGmGmCdCmGdTmG*dCdGdGdTmGmCdCmUdCdCmGmUdCmAmCmGmC[invdT]; aptamer) |  |  | % binding @ 100 nM vWF (Phase 3 modification): 22.5%; Kd [1]: 10.1 nM
4 | ARC1199: ARC1172 with one residue replaced by 2'-O methyl residue (DNA dGdGdCdGdTmGdCdAdGdTdGdCdCdTdTdCdGdGdCdCdGdTdGdCdGdGdTdGdCdCdTdCdCdGdTdCdAdCdGdCdC[invdT]; aptamer) | 28 | 19 | 
5 | mGmCmGmUdGdCdAmGmUmGmCmCPEGmGmGmCdCmG-s-TmGdCdGdGTmGmCdCmUdCdCmGmUmCmAmCmGmC-3T (mGmCmGmUdGdCdAmGmUmGmCmC[PEG]mGmGmCdCmG*dTmGdCdGdGdTmGmCdCmUdCdCmGmUmCmAmCmGmC[invdT]; aptamer) [ARC1528] |  |  | % binding @ 100 nM vWF (Phase 4 and 5 modification): 10.2%; Kd (Phase 4 and 5 modification): 4.2 nM
6 | ARC1237: ARC1172 with composite 2'-O methyl replacements in the stem regions (mGmGmCmGmUmGdCdAdGdTdGdCdCdTdTdCdGdGdCdCdGdTdGdCdGdGdTdGdCdCdTdCdCdGdTmCmAmCmGmCmC[invdT]; aptamer) | 9 | 41 | 
7 | ARC1207: ARC1172 with one residue replaced by 2'-O methyl residue (DNA dGdGdCdGdTdGdCdAdGdTdGdCdCmUdTdCdGdGdCdCdGdTdGdCdGdGdTdGdCdCdTdCdCdGdTdCdAdCdGdCdC[invdT]; aptamer) | 54 | 2 | 
8 | ARC1221: ARC1172 with one residue replaced by 2'-O methyl residue (dGdGdCdGdTdGdCdAdGdTdGdCdCdTdTdCdGdGdCdCdGdTdGdCdGdGdTmGdCdCdTdCdCdGdTdCdAdCdGdCdC[invdT]; aptamer) | 43 | 1 | 
9 | ARC1218: ARC1172 with one residue replaced by 2'-O methyl residue (DNA dGdGdCdGdTdGdCdAdGdTdGdCdCdTdTdCdGdGdCdCdGdTdGdCmGdGdTdGdCdCdTdCdCdGdTdCdAdCdGdCdC[invdT]; aptamer) | 2 | 32 | 
10 | ARC1204: ARC1172 with one residue replaced by 2'-O methyl residue (DNA dGdGdCdGdTdGdCdAdGdTmGdCdCdTdTdCdGdGdCdCdGdTdGdCdGdGdTdGdCdCdTdCdCdGdTdCdAdCdGdCdC[invdT]; aptamer) | 45 | 2 | 
11 | ARC1228: ARC1172 with one residue replaced by 2'-O methyl residue (dGdGdCdGdTdGdCdAdGdTdGdCdCdTdTdCdGdGdCdCdGdTdGdCdGdGdTdGdCdCdTdCdCdGmUdCdAdCdGdCdC[invdT]; aptamer) | 43 | 2 | 
12 | ARC1231: ARC1172 with one residue replaced by 2'-O methyl residue (dGdGdCdGdTdGdCdAdGdTdGdCdCdTdTdCdGdGdCdCdGdTdGdCdGdGdTdGdCdCdTdCdCdGdTdCdAmCdGdCdC[invdT]; aptamer) | 50 | 1 | 
